From patent US20100174065A1, “COMPOUNDS” (GLAXO GROUP LIMITED, priority 2007, published 2010)
pEC50: −log10 of the molar value. Counter-ions that a name gives are not always drawn.

Test system: not given
Test: not given
Conditions: clinical studies, first 24 hours of treatment; cited from earlier work

| Compound | bradycardia on treatment |
| --- | --- |
| CCCCCCCCc1ccc(CCC(N)(CO)CO)cc1 [FTY720] | results in bradycardia |

Target: T1, human S1P1 receptor (Homo sapiens, UniProt P21453)
T1 construct: expressed in transfected cells; membranes
Test: S1P1 GTPγS assay
Format: biochemical
Conditions: agonist activity, [35S]-GTPγS binding, human S1P1 rat hepatoma membranes
Procedure: (§1) For membrane preparations all steps were performed at 4° C. Rat hepatoma cells stably expressing the human S1P1 receptor or Rat Basophilic Leukaemia cells (RBL) stably expressing human S1P3 receptor were grown to 80% confluency before being harvested into 10 ml Phospho-Buffered Saline (PBS) and centrifuged at 1200 rpm for 5 minutes. After removal of the supernatant, the pellet was re-suspended and cells were homogenised within a glass Waring blender for 2 bursts of 15 secs in 200 mls of buffer (50 mM HEPES, 1 mM leupeptin, 25 μg/ml bacitracin, 1 mM EDTA, 1 mM PMSF, 2 μM pepstatin A). The blender was plunged into ice for 5 mins after the first burst and 10-40 mins after the final burst to allow foam to dissipate. The material was then spun at 500 g for 20 mins and the supernatant spun for 36 mins at 48,000 g. The pellet was resuspended in the same buffer as above but without PMSF and pepstatin A. The material was then forced through a 0.6 mm needle, made up to the required volume, (usually ×4 the volume of the original cell pellet), aliquoted and stored frozen at −80° C.
as §1, with “All” for “For membrane preparations all”, “Cells” for “Rat hepatoma cells stably expressing the human S1P1 receptor or Rat Basophilic Leukaemia cells (RBL) stably expressing human S1P3 receptor were grown to 80% confluency before being harvested into 10 ml Phospho-Buffered Saline (PBS) and centrifuged at 1200 rpm for 5 minutes. After removal of the supernatant, the pellet was re-suspended and cells”
Human S1P1 rat hepatoma membranes (1.5 μg/well) were adhered to a wheatgerm agglutinin (WGA)-coated scintillation proximity assay (SPA) beads (0.125 mg/well) in assay buffer (HEPES 20 mM, MgCl2 10 mM, NaCl 100 mM and pH adjusted to 7.4 using KOH 5M, GDP 10 μM FAC (final assay concentration) and saponin 90 μg/ml FAC was also added).
After 30 minutes pre-coupling on ice the bead and membrane suspension was dispensed into a white Greiner polypropylene LV384-well plate ([…]), containing 0.1 μl of the compound. 5 μl/well [^355]-GTPγS (0.5 nM final radioligand conc) made up in assay buffer was then added to agonist plates. The final assay cocktail (10.1 μl) was then centrifuged at 1000 rpm for 5 minutes then read immediately on a Viewlux reader.
All test compounds were dissolved in DMSO at a concentration of 10 mM and were prepared in 100% DMSO using a 1 in 4 dilution step to provide 11 point dose response curves. The dilutions were transferred to the assay plates ensuring that the DMSO concentration was constant across the plate for all assays.
All data was normalized to the mean of 16 high and 16 low control wells on each plate. A four parameter curve fit was then applied.
S1P1 expressing RH7777 membranes (1.5 μg/well) membranes (1.5 μg/well) were homogenised by passing through a 23G needle. These were then adhered to WGA-coated SPA beads (0.125 mg/well) in assay buffer (HEPES 20 mM, MgCl2 10 mM, NaCl 100 mM and pH adjusted to 7.4 using KOH 5M). GDP 10 μM FAC and saponin 90 μg/ml FAC were also added
After 30 minutes precoupling on ice, the bead and membrane suspension was dispensed into white Greiner polypropylene LV 384-well plates (5 μl/well), containing 0.1 μl of compound. 5 μl/well [^35S]-GTPγS (0.5 nM for S1P1 or 0.3 nM for S1P3 final radioligand concentration) made in assay buffer was then added to the plates. The final assay cocktail (10.1 μl) was then sealed, spun on a centrifuge, then read immediately on a Viewlux instrument.

T1 sequence (P21453 whole entry): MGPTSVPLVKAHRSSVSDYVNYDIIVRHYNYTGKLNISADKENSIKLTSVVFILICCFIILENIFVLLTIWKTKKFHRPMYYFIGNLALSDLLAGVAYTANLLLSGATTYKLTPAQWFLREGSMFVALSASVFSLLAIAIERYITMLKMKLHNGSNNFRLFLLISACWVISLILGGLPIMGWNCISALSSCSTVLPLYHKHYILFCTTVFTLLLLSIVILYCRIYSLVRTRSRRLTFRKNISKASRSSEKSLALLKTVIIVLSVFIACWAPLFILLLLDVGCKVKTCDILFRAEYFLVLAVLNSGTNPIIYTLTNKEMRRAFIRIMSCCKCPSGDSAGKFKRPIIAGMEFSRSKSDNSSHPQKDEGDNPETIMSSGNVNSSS

| Compound | pEC50 |
| --- | --- |
| CC(C)Oc1ccc(-c2nc(-c3ccc4c(c3)CCN(CCCC(=O)O)CC4)no2)cc1C(F)(F)F [Example 28, 4-(7-{5-[4-[(1-Methylethyl)oxy]-3-(trifluoromethyl)phenyl]-1,2,4-oxadiazol-3-yl}-1,2,4,5-tetrahydro-3H-3-benzazepin-3-yl)butanoic acid hydrochloride] | ≥ 8.00 |
| O=C(O)CCCN1CCc2ccc(-c3noc(-c4ccc(-c5ccccc5)c(C(F)(F)F)c4)n3)cc2CC1 [Example 29, 4-(7-{5-[2-(Trifluoromethyl)-4-biphenylyl]-1,2,4-oxadiazol-3-yl}-1,2,4,5-tetrahydro-3H-3-benzazepin-3-yl)butanoic acid hydrochloride] | > 7.00 |
| CC(C)Oc1ccc(-c2nc(-c3cccc4c3OCCNC4)no2)cc1Cl [Example 31, 9-(5-{3-Chloro-4-[(1-methylethyl)oxy]phenyl}-1,2,4-oxadiazol-3-yl)-2,3,4,5-tetrahydro-1,4-benzoxazepine hydrochloride] | > 7.00 |
| CC(C)Oc1ccc(-c2nc(-c3cccc4c3OCCNC4)no2)cc1C#N [Example 32, 2-[(1-Methylethyl)oxy]-5-[3-(2,3,4,5-tetrahydro-1,4-benzoxazepin-9-yl)-1,2,4-oxadiazol-5-yl]benzonitrile hydrochloride] | > 7.00 |
| CC(C)Oc1ccc(-c2nc(-c3cccc4c3OCCN(CCCC(=O)O)C4)no2)cc1Cl [Example 33, 4-[9-(5-{3-Chloro-4-[(1-methylethyl)oxy]phenyl}-1,2,4-oxadiazol-3-yl)-2,3-dihydro-1,4-benzoxazepin-4(5H)-yl]butanoic acid] | > 7.00 |
| CC(C)Oc1ccc(-c2nc(-c3cccc4c3OCCN(CCCC(=O)O)C4)no2)cc1C#N [Example 34, 4-[9-(5-{3-Cyano-4-[(1-methylethyl)oxy]phenyl}-1,2,4-oxadiazol-3-yl)-2,3-dihydro-1,4-benzoxazepin-4(5H)-yl]butanoic acid] | > 7.00 |
| CC(C)Oc1ccc(-c2nc(-c3ccc4c(c3)CNCCO4)no2)cc1C#N [Example 35, 2-[(1-Methylethyl)oxy]-5-[3-(2,3,4,5-tetrahydro-1,4-benzoxazepin-7-yl)-1,2,4-oxadiazol-5-yl]benzonitrile hydrochloride] | > 7.00 |
| CC(C)Oc1ccc(-c2nc(-c3ccc4c(c3)CN(CCC(=O)O)CCO4)no2)cc1C#N [Example 37, 3-[7-(5-{3-Cyano-4-[(1-methylethyl)oxy]phenyl}-1,2,4-oxadiazol-3-yl)-2,3-dihydro-1,4-benzoxazepin-4(5H)-yl]propanoic acid] | > 7.00 |
| CC(C)Oc1ccc(-c2nc(-c3ccc4c(c3)CN(CCCC(=O)O)CCO4)no2)cc1C#N [Example 39, 4-[7-(5-{3-Cyano-4-[(1-methylethyl)oxy]phenyl}-1,2,4-oxadiazol-3-yl)-2,3-dihydro-1,4-benzoxazepin-4(5H)-yl]butanoic acid] | > 7.00 |
| CC(C)Oc1ccc(-c2nc(-c3ccc4c(c3)OCCNC4)no2)cc1C#N [Example 41, 2-[(1-Methylethyl)oxy]-5-[3-(2,3,4,5-tetrahydro-1,4-benzoxazepin-8-yl)-1,2,4-oxadiazol-5-yl]benzonitrile] | > 7.00 |
| CC(C)Oc1ccc(-c2nc(-c3cccc4c3OCCN(CCCCC(=O)O)C4)no2)cc1C#N [Example 43, 5-[9-(5-{3-Cyano-4-[(1-methylethyl)oxy]phenyl}-1,2,4-oxadiazol-3-yl)-2,3-dihydro-1,4-benzoxazepin-4(5H)-yl]pentanoic acid] | > 7.00 |
| CC(C)Oc1ccc(-c2nc(-c3cccc4c3OCCN(CCC(=O)O)C4)no2)cc1Cl [Example 47, 3-[9-(5-{3-Chloro-4-[(1-methylethyl)oxy]phenyl}-1,2,4-oxadiazol-3-yl)-2,3-dihydro-1,4-benzoxazepin-4(5H)-yl]propanoic acid] | > 7.00 |
| CC(C)Oc1ncc(-c2nc(-c3ccc4c(c3)CCNCC4)no2)cc1C#N [Example 48, 2-[(1-Methylethyl)oxy]-5-[3-(2,3,4,5-tetrahydro-1H-3-benzazepin-7-yl)-1,2,4-oxadiazol-5-yl]-3-pyridinecarbonitrile formate] | > 7.00 |
| CC(C)Oc1ncc(-c2nc(-c3ccc4c(c3)CCN(CCCC(=O)O)CC4)no2)cc1Cl [Example 50, 4-[7-(5-{5-Chloro-6-[(1-methylethyl)oxy]-3-pyridinyl}-1,2,4-oxadiazol-3-yl)-1,2,4,5-tetrahydro-3H-3-benzazepin-3-yl]butanoic acid] | > 7.00 |

Test system: circulating lymphocytes
Test: not given
Conditions: animals and man; cited from earlier work

| Compound | effect on circulating lymphocytes |
| --- | --- |
| CCCCCCCCc1ccc(CCC(N)(CO)CO)cc1 [FTY720] | reduce circulating lymphocytes |
